In a compilation of properties of binary mixtures (doi:10.1016/j.molliq.2016.11.074):

Experiment: xn = mol fraction of the nth substance listed
Details: 100 kPa

O + CC[n+]1ccn(C)c1.CS(=O)(=O)[O-]
Details	electrical conductivity [S/m]
298.15 K, x1 = 1	0.0002

CC[n+]1ccn(C)c1.CS(=O)(=O)[O-] + O
Details	electrical conductivity [S/m]	speed of sound [m/s]
293.15 K, x2 = 0.0015	–	1779
293.15 K, x2 = 0.1905	–	1793
293.15 K, x2 = 0.3226	–	1808
293.15 K, x2 = 0.4301	–	1817
293.15 K, x2 = 0.619	–	1851
293.15 K, x2 = 0.7573	–	1853
293.15 K, x2 = 0.9048	–	1803
298.15 K, x1 = 0.0119	2.19	–
298.15 K, x2 = 0	0.45	1766
298.15 K, x2 = 0.191	0.707	–
298.15 K, x2 = 0.3226	–	1795
298.15 K, x2 = 0.3233	0.851	–
298.15 K, x2 = 0.5054	–	1818
298.15 K, x2 = 0.5057	1.24	–
298.15 K, x2 = 0.6206	–	1840
298.15 K, x2 = 0.7542	2.37	–
298.15 K, x2 = 0.7573	–	1846
298.15 K, x2 = 0.902	3.74	–
298.15 K, x2 = 0.9032	–	1791
298.15 K, x2 = 0.9651	3.87	–
303.15 K, x2 = 0	–	1753
303.15 K, x2 = 0.3241	–	1784
303.15 K, x2 = 0.427	–	1793
303.15 K, x2 = 0.5069	–	1807
303.15 K, x2 = 0.7542	–	1841
303.15 K, x2 = 0.9048	–	1779
303.15 K, x2 = 0.9662	–	1680
308.15 K, x2 = 0	–	1743
308.15 K, x2 = 0.192	–	1757
308.15 K, x2 = 0.3241	–	1771
308.15 K, x2 = 0.4286	–	1783
308.15 K, x2 = 0.5054	–	1795
308.15 K, x2 = 0.6206	–	1818
308.15 K, x2 = 0.7558	–	1838
308.15 K, x2 = 0.9032	–	1765
313.15 K, x2 = 0.192	–	1745
313.15 K, x2 = 0.3241	–	1760
313.15 K, x2 = 0.5084	–	1784
313.15 K, x2 = 0.6206	–	1808
313.15 K, x2 = 0.7558	–	1830
313.15 K, x2 = 0.9662	–	1668
